# Measurements published in patent US8192962B2, “Processes for detecting toxic substances” (Daikin Industries, Ltd., priority 2001, dated 2012).
# System: Unknown protein yeast genes
# Assay: DNA chip mRNA expression in yeast, unknown protein yeast genes (Table 1)
# Assay type: cell-based, Saccharomyces cerevisiae S288C
# Protocol: Yeast (Saccharomyces cerevisiae S288C (α SUC2mal mel gap2 CUP1)) were incubated at 25° C. on YPD medium (yeast extract 1%, polypepton 2%, glucose 2%). One of toxic chemical substances was added to the cells at logarithmic growth phase, and the cells were further incubated for two hours. Cells were cultured without any chemical substance in the same condition, and were used as control. Concentrations of the chemical substances were defined to inhibit the growth of the yeast but not lead to death.
# After completion of the incubation, the culture was centrifuged to collect the cells. To the cells, sodium acetate buffer (50 mM sodium acetate, 10 mM EDTA, 1% SDS) was added, and the mixture was shaken at 65° C. for five minutes, followed by returning to room temperature, and obtaining the supernatant, of which the procedures were repeated two times. To the supernatant, ½ amount of a solution of phenol/chloroform was added, and the mixture was centrifuged to give a supernatant, which was added with an equal amount of chloroform, and the mixture was centrifuged to give a supernatant. To the supernatant, an equal amount of isopropanol containing 0.3 M sodium acetate was added, and the mixture was allowed to stand at room temperature for 30 minutes, after which the mixture was centrifuged to give a sediment of the whole RNAs. Seventy % ethanol was added to the sediment, and the mixture was again centrifuged to give a sediment, which was then dried and dissolved in water. mRNA was isolated from the whole RNAs as followings. In view of the fact that a poly A chain is attached to the 3′ terminus of mRNA, a polynucleotide having a poly T structure which was immobilized on the surface of latex beads was used to trap the mRNA, and then the mRNA was washed and eluted with spine column (Oligotex-dT30<Super>mRNA Purification Kit, Takara). Reverse transcription of the mRNA was conducted with a reverse transcriptase (Super Script II Reverse Transcriptase; catalogue No. 18064-014, GibcoBRL) using fluorescence-labeled nucleotides to give cDNAs that were introduced with Cy3-dUTP or Cy5-dUTP during the reverse transcription.
# The labeled cDNAs were dissolved in TE buffer (10mM Tris-HCl/1 mM EDTA, pH8.0), and the solution was dropped on the DNA chip containing the whole genes of yeast (DNA Chip Research Inc. Japan) so that the cDNAs were hybridized on the DNA chip at 65° C. for over 12 hours. The fluoresces intensity of the DNA chip was read with a scanner, and the ratio relative to the fluorescence intensity resulting from the absence of chemical substance was estimated as the following, which is shown in Tables 1 to 9: […]
smiles,measurement,setting,value
"C[S+](C)[O-] [(15), dimethylsulfoxide]",The level of expressed mRNA in the presence of chemical substance/The level of expressed mRNA in the absence of chemical substance,yeast gene YAL018C,6.9
same,The level of expressed mRNA in the presence of chemical substance/The level of expressed mRNA in the absence of chemical substance,yeast gene YAL034C,1.4
same,The level of expressed mRNA in the presence of chemical substance/The level of expressed mRNA in the absence of chemical substance,yeast gene YAR031W,0.9
same,The level of expressed mRNA in the presence of chemical substance/The level of expressed mRNA in the absence of chemical substance,yeast gene YAR064W,1.9
same,The level of expressed mRNA in the presence of chemical substance/The level of expressed mRNA in the absence of chemical substance,yeast gene YBL048W,4.1
same,The level of expressed mRNA in the presence of chemical substance/The level of expressed mRNA in the absence of chemical substance,yeast gene YBL107C,1.4
same,The level of expressed mRNA in the presence of chemical substance/The level of expressed mRNA in the absence of chemical substance,yeast gene YBR012C,1.1
same,The level of expressed mRNA in the presence of chemical substance/The level of expressed mRNA in the absence of chemical substance,yeast gene YBR062C,0.7
same,The level of expressed mRNA in the presence of chemical substance/The level of expressed mRNA in the absence of chemical substance,"yeast gene YBR101C, incubated two hours with substance",0.5
same,The level of expressed mRNA in the presence of chemical substance/The level of expressed mRNA in the absence of chemical substance,yeast gene YBR287W,1.3
same,The level of expressed mRNA in the presence of chemical substance/The level of expressed mRNA in the absence of chemical substance,yeast gene YCR013C,1.6
same,The level of expressed mRNA in the presence of chemical substance/The level of expressed mRNA in the absence of chemical substance,yeast gene YDL027C,1.4
same,The level of expressed mRNA in the presence of chemical substance/The level of expressed mRNA in the absence of chemical substance,yeast gene YDL110C,1.3
same,The level of expressed mRNA in the presence of chemical substance/The level of expressed mRNA in the absence of chemical substance,yeast gene YDL169C,2.2
same,The level of expressed mRNA in the presence of chemical substance/The level of expressed mRNA in the absence of chemical substance,"yeast gene YDL222C, incubated two hours with chemical substance",7.1
same,The level of expressed mRNA in the presence of chemical substance/The level of expressed mRNA in the absence of chemical substance,yeast gene YDR070C,2.1
same,The level of expressed mRNA in the presence of chemical substance/The level of expressed mRNA in the absence of chemical substance,"yeast gene YDR078C, incubated two hours with substance",0.5
same,The level of expressed mRNA in the presence of chemical substance/The level of expressed mRNA in the absence of chemical substance,yeast gene YDR128W,1.4
same,The level of expressed mRNA in the presence of chemical substance/The level of expressed mRNA in the absence of chemical substance,"yeast gene YDR202C, incubated two hours with substance",0.5
same,The level of expressed mRNA in the presence of chemical substance/The level of expressed mRNA in the absence of chemical substance,yeast gene YDR210W,1.0
same,The level of expressed mRNA in the presence of chemical substance/The level of expressed mRNA in the absence of chemical substance,yeast gene YDR214W,1.1
same,The level of expressed mRNA in the presence of chemical substance/The level of expressed mRNA in the absence of chemical substance,yeast gene YDR250C,0.7
same,The level of expressed mRNA in the presence of chemical substance/The level of expressed mRNA in the absence of chemical substance,yeast gene YDR278C,0.7
same,The level of expressed mRNA in the presence of chemical substance/The level of expressed mRNA in the absence of chemical substance,yeast gene YDR435C,0.6
same,The level of expressed mRNA in the presence of chemical substance/The level of expressed mRNA in the absence of chemical substance,yeast gene YDR476C,2.2
same,The level of expressed mRNA in the presence of chemical substance/The level of expressed mRNA in the absence of chemical substance,yeast gene YER037W,0.8
same,The level of expressed mRNA in the presence of chemical substance/The level of expressed mRNA in the absence of chemical substance,"yeast gene YER106W, incubated two hours with chemical substance",6.8
same,The level of expressed mRNA in the presence of chemical substance/The level of expressed mRNA in the absence of chemical substance,"yeast gene YER124C, incubated two hours with substance",0.5
same,The level of expressed mRNA in the presence of chemical substance/The level of expressed mRNA in the absence of chemical substance,"yeast gene YER182W, incubated two hours with substance",0.5
same,The level of expressed mRNA in the presence of chemical substance/The level of expressed mRNA in the absence of chemical substance,yeast gene YFL024C,0.9
same,The level of expressed mRNA in the presence of chemical substance/The level of expressed mRNA in the absence of chemical substance,yeast gene YGL121C,1.6
same,The level of expressed mRNA in the presence of chemical substance/The level of expressed mRNA in the absence of chemical substance,yeast gene YGR035C,0.3
same,The level of expressed mRNA in the presence of chemical substance/The level of expressed mRNA in the absence of chemical substance,yeast gene YGR110W,1.2
same,The level of expressed mRNA in the presence of chemical substance/The level of expressed mRNA in the absence of chemical substance,yeast gene YGR139W,2.3
same,The level of expressed mRNA in the presence of chemical substance/The level of expressed mRNA in the absence of chemical substance,"yeast gene YGR211W, incubated two hours with substance",0.5
same,The level of expressed mRNA in the presence of chemical substance/The level of expressed mRNA in the absence of chemical substance,yeast gene YGR284C,3.9
same,The level of expressed mRNA in the presence of chemical substance/The level of expressed mRNA in the absence of chemical substance,yeast gene YHR029C,1.0
same,The level of expressed mRNA in the presence of chemical substance/The level of expressed mRNA in the absence of chemical substance,yeast gene YHR054C,0.8
same,The level of expressed mRNA in the presence of chemical substance/The level of expressed mRNA in the absence of chemical substance,yeast gene YHR095W,0.8
same,The level of expressed mRNA in the presence of chemical substance/The level of expressed mRNA in the absence of chemical substance,yeast gene YHR209W,5.0
same,The level of expressed mRNA in the presence of chemical substance/The level of expressed mRNA in the absence of chemical substance,"yeast gene YIL117C, incubated two hours with chemical substance",7.5
same,The level of expressed mRNA in the presence of chemical substance/The level of expressed mRNA in the absence of chemical substance,yeast gene YJL037W,1.6
same,The level of expressed mRNA in the presence of chemical substance/The level of expressed mRNA in the absence of chemical substance,"yeast gene YJL149W, incubated two hours with chemical substance",9.0
same,The level of expressed mRNA in the presence of chemical substance/The level of expressed mRNA in the absence of chemical substance,yeast gene YJR030C,0.8
same,The level of expressed mRNA in the presence of chemical substance/The level of expressed mRNA in the absence of chemical substance,"yeast gene YJR085C, incubated two hours with substance",0.5
same,The level of expressed mRNA in the presence of chemical substance/The level of expressed mRNA in the absence of chemical substance,yeast gene YKL071W,1.7
same,The level of expressed mRNA in the presence of chemical substance/The level of expressed mRNA in the absence of chemical substance,yeast gene YKL107W,1.7
same,The level of expressed mRNA in the presence of chemical substance/The level of expressed mRNA in the absence of chemical substance,yeast gene YKR040C,1.1
same,The level of expressed mRNA in the presence of chemical substance/The level of expressed mRNA in the absence of chemical substance,yeast gene YKR075C,0.4
same,The level of expressed mRNA in the presence of chemical substance/The level of expressed mRNA in the absence of chemical substance,yeast gene YLL056C,1.5
